Data published in patent US20260191856A1 (priority 2022, published 2026).
“Also recorded” adds a separate entry of the source. Marks after values point to notes of the source that are not given here.

What was measured:
MOR [1] = target: T1, MOR (Mus musculus, UniProt P42866); assay: biochemical; format: binding; design: made in house; host or cells: Sf9 insect cell membranes (baculovirus)
MOR [2] = target: T1, MOR; format: biochemical; design: FLAG (N); hexa-histidine (C); made in house; host or cells: Spodoptera frugiperda (Sf9) for MOR; Trichoplusia ni for Gi
CB1 = CB1 (Homo sapiens, UniProt P21554); assay: GTP turnover assay with CB1 and Gi1; format: biochemical; design: Purification of human full-length CB1 with an N-terminal FLAG and C-terminal hexahistidine tags; FLAG (N); hexahistidine (C); made in house; host or cells: insect cells (baculovirus, Expression Systems) for CB1; Trichoplusia ni for Gi
Chain of CB1 (P21554 whole entry): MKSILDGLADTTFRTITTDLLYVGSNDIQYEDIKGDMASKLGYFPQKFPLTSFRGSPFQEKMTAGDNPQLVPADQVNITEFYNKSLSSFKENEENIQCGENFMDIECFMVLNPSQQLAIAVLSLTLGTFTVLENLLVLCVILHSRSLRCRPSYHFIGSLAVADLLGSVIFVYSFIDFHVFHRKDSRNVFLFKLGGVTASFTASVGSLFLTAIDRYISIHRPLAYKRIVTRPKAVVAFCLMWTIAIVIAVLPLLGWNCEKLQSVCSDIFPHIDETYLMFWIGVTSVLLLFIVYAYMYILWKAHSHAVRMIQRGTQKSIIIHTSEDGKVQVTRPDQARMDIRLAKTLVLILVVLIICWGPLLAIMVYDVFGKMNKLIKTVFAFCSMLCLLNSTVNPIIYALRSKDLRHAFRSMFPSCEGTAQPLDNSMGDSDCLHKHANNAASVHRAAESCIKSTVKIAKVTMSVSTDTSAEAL

male C57BL/6J mice [3] = assay: Locomotor and respiration effects (CLAMS)
male C57BL/6J mice [4] = conditions: mouse, in vivo
male C57BL/6J mice [5] = assay: Naloxone-precipitated opioid withdrawal assay
male C57BL/6J mice [6] = assay: Conditioned place preference (CPP) assay; format: in vivo, mouse; conditions: vehicle (−30 min) + naloxone 0.1 mg/kg s.c. (−15 min)
[7] = Condition 1 saline + NAL (10 mg/kg)
[8] = Condition 2 morphine + NAL (10 mg/kg)
[9] = Condition 3 morphine + low NAL (0.1 mg/kg)
[10] = Condition 3 morphine + low NAL (0.1 mg/kg), listed as NAL

T1 sequence (P42866 whole entry): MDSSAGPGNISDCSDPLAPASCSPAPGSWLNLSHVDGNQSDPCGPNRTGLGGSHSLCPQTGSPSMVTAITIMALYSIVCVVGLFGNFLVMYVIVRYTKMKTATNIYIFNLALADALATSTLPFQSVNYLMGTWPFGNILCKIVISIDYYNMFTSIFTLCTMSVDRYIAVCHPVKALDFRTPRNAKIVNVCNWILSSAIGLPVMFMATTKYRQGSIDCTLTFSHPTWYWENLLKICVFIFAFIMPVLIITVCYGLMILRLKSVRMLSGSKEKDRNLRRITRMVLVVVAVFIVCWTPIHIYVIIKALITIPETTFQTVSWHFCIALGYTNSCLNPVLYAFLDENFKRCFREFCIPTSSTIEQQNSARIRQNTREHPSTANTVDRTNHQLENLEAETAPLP

CNC(=O)[C@H](Cc1ccc(C#N)cc1)NCc1csc(-c2cccc(-c3ccc4cc(N)ccc4c3)c2)n1 [Compound A1]
decrease in naloxone affinity for the receptor (MOR [1]; in the presence of A1): ~ 6 fold
effect on binding of 3H-naloxone (MOR [1]; increasing amounts of compound, MOR-expressing membranes): decrease binding of ^3H-naloxone to MOR-expressing membranes
GTP turnover in the absence of orthosteric ligand (MOR [2]): can induce GTP turnover to similar levels observed for the full agonist DAMGO
effect on met-enkephalin induced activation of G protein (GTP turnover) (MOR [2]): enhance met-enkephalin induced activation of G protein
efficacy of modulation of met-enkephalin-induced GTP turnover (MOR [2]): more efficacious at improving GTP turnover compared to A2; also recorded: highly effective at enhancing activity, fully depleting nucleotide under these conditions
potency in GTP turnover assay (MOR [2]): low double-digit micromolar

CNC(=O)[C@H](Cc1ccc(C)c(OC)c1)NC(=O)CSc1ccc2ccccc2c1-c1cncc(OCc2ccccc2)c1 [Compound B1, (S)-2-(2-((1-(5-(benzyloxy)pyridin-3-yl)naphthalen-2-yl)thio)acetamido)-3-(3-methoxy-4-methylphenyl)-N-methylpropanamide]
potency of B1 relative to B2, 3H-naloxone results (MOR [1]; FIG. 5A): ≥ 100 fold
potency of B1 relative to B2, GTP turnover assays (MOR [2]): ≥ 100

Cc1ccc2c(C(C[N+](=O)[O-])c3cccs3)c(-c3ccccc3)[nH]c2c1 (centres unmarked) [ZCZ, reference compound]
effect on Gi1 GTP turnover, AEA-bound CB1 (CB1): causes increased Gi1 turnover for both FUB and AEA, equally
effect on Gi1 GTP turnover, FUB-bound CB1 (CB1): causes increased Gi1 turnover for both FUB and AEA, equally

CN1CC[C@]23c4c5ccc(O)c4O[C@H]2[C@@H](O)C=C[C@H]3[C@H]1C5 [Morphine]
ambulations (male C57BL/6J mice [3]; Morphine (20 mg/kg, s.c.)): significantly increased ambulations for over 140 min
breathing rate (male C57BL/6J mice [3]; Morphine (20 mg/kg, s.c.)): decreased breathing rate through 100 min

C=CCN1CC[C@]23c4c5ccc(O)c4O[C@H]2C(=O)CC[C@@]3(O)[C@H]1C5 [Naloxone]
antagonism of morphine-induced antinociception by low-dose naloxone alone (male C57BL/6J mice [4]): no significant antagonism
effect of low-dose naloxone pretreatment on morphine-induced hyperlocomotion (male C57BL/6J mice [3]; naloxone 0.1 mg/kg): ineffective in ameliorating morphine-induced hyperlocomotion
effect of low-dose naloxone pretreatment on morphine-induced respiratory depression (male C57BL/6J mice [3]; naloxone 0.1 mg/kg): observed to reduce morphine-induced respiratory depression
Forepaw Tremor, Avg (male C57BL/6J mice [5]; [7]): 26.7
Jumping Frequency, Avg (male C57BL/6J mice [5]; [7]): 2.7
Rearing Frequency, Avg (male C57BL/6J mice [5]; [7]): 23.5
Stool Consistency, Avg (male C57BL/6J mice [5]; [7]): 1.6
Straightening, Avg (male C57BL/6J mice [5]; [7]): 0.1
Teeth Chattering Frequency, Avg (male C57BL/6J mice [5]; [7]): 1
Forepaw Tremor, Avg (male C57BL/6J mice [5]; [8]): 26.7
Jumping Frequency, Avg (male C57BL/6J mice [5]; [8]): 76.9*
Rearing Frequency, Avg (male C57BL/6J mice [5]; [8]): 2.64*
Stool Consistency, Avg (male C57BL/6J mice [5]; [8]): precipitates significant diarrhea
Straightening, Avg (male C57BL/6J mice [5]; [8]): 0.55
Teeth Chattering Frequency, Avg (male C57BL/6J mice [5]; [8]): 54.2*
Stool Consistency, Avg (male C57BL/6J mice [5]; Condition 2 morphine + NAL (10 mg/kg), listed as NAL): 7.46*
Forepaw Tremor, Avg (male C57BL/6J mice [5]; [9]): 7.3
Jumping Frequency, Avg (male C57BL/6J mice [5]; [9]): caused significant withdrawal symptoms
Rearing Frequency, Avg (male C57BL/6J mice [5]; [9]): 22.2
Stool Consistency, Avg (male C57BL/6J mice [5]; [9]): precipitates significant diarrhea
Straightening, Avg (male C57BL/6J mice [5]; [9]): 3.1
Teeth Chattering Frequency, Avg (male C57BL/6J mice [5]; [9]): had no effect relative to saline alone
Jumping Frequency, Avg (male C57BL/6J mice [5]; [10]): 45.4*†
Stool Consistency, Avg (male C57BL/6J mice [5]; [10]): 9.3*
Teeth Chattering Frequency, Avg (male C57BL/6J mice [5]; [10]): 0.7+
morphine CPP after vehicle and low-dose naloxone (male C57BL/6J mice [6]): did not prevent significant morphine CPP
